Measurements as given in patent US8835498B2, “Anti-wrinkle agents” (Pola Chemical Industries Inc., priority 2008, dated 2014).

Tested on: hairless mice
Test: Evaluation of wrinkle-reducing effect using photoaging model (UVB-irradiated hairless mice, replica wrinkle score)
Type: in vivo
Settings: 0.5% by mass in ethanol (lotion), 100 μL once a day for 8 weeks on dorsal portions after 10 weeks of UVB irradiation; replicas scored visually 1 to 6; vs ethanol control
Procedure: A wrinkle-reducing effect of Cosmetic 1 above was evaluated in a test using a photoaging model.
A total of ten hairless mice, which were six-week-old at the time of the start of a test, were used and divided into two groups each consisting of five mice, i.e., a control group (ethanol solvent administration group) and a sample administration group. The dorsal portions of the hairless mice were irradiated with UVB at a frequency of once a day and three times a week for 10 consecutive weeks to induce photoaging. The UVB irradiation amount was set to 50 mJ/cm^2 for the first week and to 100 mJ/cm^2 on week 2 or later.
In the sample administration group, Cosmetic 1 above was administered to the dorsal portions of the hairless mice. Cosmetic 1 started to be administered to the dorsal portions of the hairless mice on the following day after the completion of the UVB irradiation for 10 weeks, and administered at a dose of 100 μL once a day for 8 weeks. In the control group, the same treatments were performed as those in sample administration group except that ethanol was administered in place of Cosmetic 1 (Lotion 1) in Table 1. […] The scoring operation was performed by three measurers separately and evaluated visually with scores of 1 to 6 at intervals of 0.5. An average value of the results was calculated.

CSCC(NC(=O)c1ccc(C)cc1)C(=O)O (stereo not shown) [Compound 2, [S-methyl-N-toluyl]cysteine]
wrinkle-reducing effect (wrinkle score): excellent wrinkle-reducing effects
